Assay results taken from patent US20240226342A1, “REACTIVE OXYGEN SPECIES IMAGING AGENTS” (Washington University, priority 2022, published 2024).
Where “and” joins values, the source holds several entries; their conditions need not be identical. Equal values may be shown once.

What was measured:
[1] = Quantitative biodistribution in normal mice; format: in vivo
Procedure: FIG. 8 is a line graph showing biodistribution of 18F-SLN128 in normal BI6 mice in accordance with the present disclosure. Shown is uptake (5 min, 60 min, 2 h) in brain and other critical organs quantified in terms of percent injected dose per gram of the tissue (% ID/g).
Lipopolysaccharide (LPS), is an endotoxin, released from Gram-negative bacteria. Next, the ability of SLN128 to detect either LPS or 3-Nitropropionic acid (3-NP) induced ROS in human cells was evaluated through live-cell fluorescence imaging. LPS is detected by toll-like receptor 4 (TLR4), a broadly expressed pattern recognition receptor found both on different cell types, including glial cells, and neurons. TLR4 engagement triggers the generation of mitochondrial superoxide from electron transport complex I, which in turn promotes bacterial killing. LPS treatment also triggers increased cytokine and chemokine expression in brain thus driving inflammation. Furthermore, 3-NP is an irreversible inhibitor of mitochondrial succinate dehydrogenase (SDH), which has been used to explore the molecular mechanisms of cell death associated with mitochondrial dysfunction and neurodegeneration. […] To this end, intracellular localization of SLN-128 in either the presence or absence of mitotracker deep red (control) was simulataneously assessed in either the LPS or 3-NP stimulated human glioblastoma U87 cells (see e.g., FIG. 4). […] Further, uptake of SLN 128 in U87 cells was compared under identical conditions with mitoSOX, a probe extensively used for assessing mROS. […] To test, whether SLN128 has ability to monitor therapeutic effects in U87 cells under identical conditions, SLN128 was incubated in either presence or absence of resveratrol (commonly used for mitigating mitochondrial ROS production) under 3 different conditions. The probe uptake was quantified as corrected total cell fluorescence (CTCF) using image J as described earlier. […] (see e.g., FIG. 6). […] Uptake in brain and other critical organs was analyzed in terms of percent injected dose per gram of the tissue (% ID/g).
For comparison, brain uptake ratios of [^18F]-AVID-45 ([^18F]-Florbetapir)(2 min/2 h) and [^18F]-Florbetaben (2 min/4 h) in normal mice are 4.07 (% ID/g (brain): 2 min: 7.33±1.54; 2 h: 1.80±0.07; 7.33/1.80; 4.07) 57 and 5.0 (% ID/g (brain): 2 min: 4.77; 4 h: 0.95; 4.77/0.95; 5.02) 58, respectively.

[2] = system: 3NP-induced ROS-mediated neurodegeneration in mice; experiment: PET/CT imaging after stereotaxic injection of 3-NP into striatum; format: in vivo
Procedure: FIG. 10A-FIG. 10D is an exemplary embodiment showing preclinical PET/CT imaging in accordance with the present disclosure. C57BI6 mice (n=4) were injected with either 3-Nitropropionic acid (3-NP) or saline into striatum. 72 h following treatments, 18F-SLN-128 was injected via tail-vein into mice. FIG. 10A includes PET/CT images shown as a summation frames from 45-60 min. Dynamic PET images acquired from 0 min to 60 min post tail-vein injection. Left: Control; Right: 3-NP treated (1 mg/kg, 72 h post treatment). FIG. 10B is a bar graph showing uantified uptake (% ID/cm^3) from PET imaging. FIG. 10C includes images of brains extracted from mice, fixed in PFA/sucrose; sectioned (40 μm); stained with Cresyl violet; Arrow indicates injection site. […]
Systemic administration of LPS induces oxidative stress and resulting a release of inflammatory cytokines, sustained microglial activation, and neuronal cell loss in brain areas, such as the hippocampus, cerebral cortex, substantia nigra, ventral tegmental area, and thalamus, alters the levels of neurotransmitters in adult animals, and cerebellum. […] Finally, the brain uptake (see e.g., FIG. 9C) derived from PET imaging also correlated with 60 min post imaging quantified uptake (see e.g., FIG. 9D) indicating potential of the radiotracer for imaging endotoxin mediated brain inflammation in vivo. […]

SMILES: COc1ccc2c(c1)N(C)C(c1ccc(O)c(OCC[18F])c1)c1cccn1-2 (stereo not shown) [18F-SLN-128]
- brain uptake clearance ratio relative to [18F]-AV-45 ([1]; healthy mice): 2.9 fold
- brain uptake clearance ratio relative to [18F]-Florbetaben ([1]; healthy mice): 2.3 fold
- clearance ratio relative to the benchmark (≥3.5) for crossing the blood-brain barrier ([1]; mouse, in vivo): 3.3 fold
- brain clearance ratio 5 min/60 min ([1]; normal mice): 11.4 and 11.3
- clearance from other critical organs ([1]; normal mice): excreted from other critical organs over 1 h
- defluorination / bone accumulation ([1]; normal mice): without defluorination (no bone accumulation)
- brain uptake ([1]; normal mice, 5 min post tail-vein injection): 4.11±0.32 % ID/g
- brain uptake ([1]; normal mice, 60 min post tail-vein injection): 0.36±0.01 % ID/g
- correlation of brain uptake with immunohistochemistry ([2]; 3-NP treated mice): maps with neurodegeneration and microglial activation in the striatum regions
- retention in brains of 3-NP treated mice compared with saline treated ([2]; 72 h post 3-NP into striatum): 2 fold
